Measured values from DBAASP.
Values after ≈ are worked out from the molar mass of the structure shown. Values joined by “and” are separate entries in the source; they are usually repeats but may differ in a detail not shown here. Identical values can stand only once.

Experiments:
Test in all cases: ≥ marks a high value that may be exact or a test limit, other limits are often not marked, values filed in µg/mL are converted to µM
Escherichia coli K-12 = tested on: Escherichia coli K-12
Escherichia coli DC2 = tested on: Escherichia coli DC2
Staphylococcus aureus = tested on: Staphylococcus aureus
[1] = tested on: Staphylococcus aureus UAMS-1
[2] = tested on: Streptococcus pyogenes ATCC 19615
Escherichia coli ML-35p = tested on: Escherichia coli ML-35p
[3] = tested on: Acinetobacter baumannii ATCC 19606
Saccharomyces cerevisiae = tested on: Saccharomyces cerevisiae
[4] = tested on: Candida parapsilosis ATCC 22019
[5] = tested on: Staphylococcus aureus ATCC 25923
[6] = tested on: Staphylococcus aureus ST1065
[7] = tested on: Klebsiella pneumoniae ATCC 13883
[8] = tested on: Staphylococcus aureus ATCC 43300
[9] = tested on: Escherichia coli ATCC 25922
[10] = tested on: Enterococcus faecalis ATCC 29212
[11] = tested on: Pseudomonas aeruginosa ATCC 27853
[12] = tested on: Staphylococcus aureus ATCC BAA-44
[13] = tested on: Staphylococcus aureus ATCC 29213
Escherichia coli SBS 363 = tested on: Escherichia coli SBS 363
Bacillus megaterium = tested on: Bacillus megaterium
Micrococcus luteus = tested on: Micrococcus luteus
[14] = tested on: Bacillus subtilis ATCC 23857
Aureobasidium pullulans = tested on: Aureobasidium pullulans
[15] = tested on: Corynebacterium glutamicum ATCC 13032
[16] = tested on: Candida albicans ATCC 10231
[17] = tested on: Staphylococcus aureus ATCC 9144
[18] = tested on: Shewanella putrefaciens IAM 1509
[19] = tested on: Escherichia coli JCM 1649
Salmonella typhimurium = tested on: Salmonella typhimurium
[20] = tested on: Vibrio parahaemolyticus Vp+1
[21] = tested on: Vibrio anguillarum NCIMB 829
[22] = tested on: Photobacterium damselae subsp. piscicida Sp 9587
[23] = tested on: Aeromonas salmonicida NCIMB 1102
[24] = tested on: Staphylococcus aureus IAM 1011
[25] = tested on: Bacillus subtilis IAM 1026
[26] = tested on: Escherichia coli O157:H7 ATCC 43895

`CC[C@H](C)[C@H](NC(=O)[C@H](CCCCN)NC(=O)[C@H](CCC(=O)O)NC(=O)[C@H](CCCCN)NC(=O)[C@@H](NC(=O)[C@H](CCCCN)NC(=O)[C@H](CCCN=C(N)N)NC(=O)[C@H](Cc1ccccc1)NC(=O)[C@H](Cc1ccccc1)NC(=O)[C@H](CC(=O)O)NC(=O)CNC(=O)[C@H](CC(C)C)NC(=O)[C@@H](N)CC(C)C)C(C)C)C(=O)NCC(=O)N[C@@H](CCCCN)C(=O)N[C@@H](CCC(=O)O)C(=O)N[C@@H](Cc1ccccc1)C(=O)N[C@@H](CCCCN)C(=O)N[C@@H](CCCN=C(N)N)C(=O)N[C@H](C(=O)N[C@H](C(=O)N[C@@H](CCC(N)=O)C(=O)N[C@@H](CCCN=C(N)N)C(=O)O)C(C)C)[C@@H](C)CC` [LLGDFFRKVKEKIGKEFKRIVQR] was tested, and the MIC (Escherichia coli K-12) was no less than 40 µM, the MIC (Escherichia coli DC2) was 2 µM (≈ 5.67 µg/mL) and the MIC (Staphylococcus aureus) was > 24 µM and 12 µM. The MIC [1] was no less than 160 µM.

`CC[C@H](C)[C@H](NC(=O)[C@H](C)NC(=O)[C@H](CC(C)C)NC(=O)[C@H](CO)NC(=O)[C@H](C)NC(=O)[C@@H](NC(=O)CNC(=O)[C@H](CO)NC(=O)[C@@H](NC(=O)[C@@H](NC(=O)[C@H](Cc1cnc[nH]1)NC(=O)[C@@H]1CCCN1C(=O)[C@@H](NC(=O)[C@H](CC(C)C)NC(=O)[C@H](CO)NC(=O)[C@H](CC(C)C)NC(=O)[C@@H](N)Cc1ccccc1)[C@@H](C)CC)[C@@H](C)CC)C(C)C)C(C)C)C(=O)N[C@@H](Cc1cnc[nH]1)C(=O)N[C@@H](Cc1ccccc1)C(N)=O` [FLSLIPHIVSGVASLAIHF] showed an MIC [2] of 12.5 µM (≈ 25.3 µg/mL), an MIC (Escherichia coli ML-35p) of no less than 200 µM and an MIC [3] greater than 200 µM. For the same compound, the MIC (Saccharomyces cerevisiae) was no less than 200 µM, the MIC [4] was no less than 200 µM and the MIC [5] was greater than 200 µM. The MIC [6] was no less than 200 µM, the MIC [7] was no less than 200 µM and the MIC [8] was greater than 200 µM. It also gave an MIC [9] greater than 200 µM, an MIC [10] greater than 200 µM and an MIC [11] greater than 200 µM. The MIC [12] was no less than 200 µM.

`CC(C)C[C@H](NC(=O)CN)C(=O)N[C@@H](Cc1ccccc1)C(=O)N[C@@H](CCCCN)C(=O)NCC(=O)N[C@@H](CCCCN)C(=O)N[C@@H](CCCCN)C(=O)N[C@@H](CCCCN)C(=O)N[C@@H](CC(N)=O)C(=O)N[C@@H](CCCCN)C(=O)N[C@@H](CCCCN)C(=O)N[C@H](C(=O)N[C@@H](CCCCN)C(N)=O)[C@@H](C)O` [GLFKGKKKNKKTK] was tested, and the MIC [9] was greater than 250 µM, the MIC [13] was greater than 250 µM and the MIC (Escherichia coli SBS 363) was no less than 250 µM.

For `C[C@H](NC(=O)[C@H](CCCCN)NC(=O)[C@H](Cc1c[nH]c2ccccc12)NC(=O)CNC(=O)CNC(=O)[C@H](Cc1c[nH]c2ccccc12)NC(=O)[C@H](CCCCN)NC(=O)[C@H](CCCCN)NC(=O)CN)C(=O)N[C@@H](CCCCN)C(N)=O` [GKKWGGWKAK], the MIC (Bacillus megaterium) was 3.41 µM (≈ 3.9 µg/mL), the MIC (Micrococcus luteus) was no less than 218 µM and the MIC [14] was no less than 109 µM. It also gave an MIC [9] greater than 218 µM, an MIC (Aureobasidium pullulans) of no less than 54.6 µM and an MIC [11] greater than 218 µM. The MIC [15] was 27.3 µM (≈ 31.3 µg/mL), the MIC [16] was 109 µM (≈ 125 µg/mL) and the MIC [17] was no less than 218 µM.

`C[C@H](NC(=O)[C@H](CCCCN)NC(=O)[C@H](Cc1c[nH]c2ccccc12)NC(=O)CNC(=O)CNC(=O)[C@@H]1CCCN1C(=O)[C@H](CCCCN)NC(=O)[C@H](CCCCN)NC(=O)CN)C(=O)N[C@@H](CCCCN)C(N)=O` [GKKPGGWKAK] was tested, and the MIC (Bacillus megaterium) was no less than 237 µM, the MIC (Micrococcus luteus) was no less than 237 µM and the MIC [14] was no less than 237 µM. The MIC [9] was greater than 237 µM, the MIC (Aureobasidium pullulans) was no less than 237 µM and the MIC [11] was greater than 237 µM. It also gave an MIC [15] of no less than 237 µM, an MIC [16] greater than 237 µM and an MIC [17] of no less than 237 µM.

With `CC[C@H](C)[C@H](NC(=O)[C@H](CCC(N)=O)NC(=O)CNC(=O)[C@H](CC(C)C)NC(=O)[C@@H](NC(=O)[C@H](CCCCN)NC(=O)[C@H](CCCN=C(N)N)NC(=O)[C@H](Cc1c[nH]c2ccccc12)NC(=O)[C@@H](N)CC(N)=O)[C@@H](C)CC)C(=O)N[C@@H](C)C(=O)N[C@@H](CO)C(=O)N[C@H](C(=O)NCC(=O)N[C@@H](C)C(=O)NCC(=O)N[C@@H](CC(C)C)C(=O)N[C@@H](CC(C)C)C(=O)NCC(=O)N[C@@H](CO)C(=O)N[C@@H](CC(C)C)C(=O)N[C@@H](CC(C)C)C(=O)N[C@@H](C)C(=O)NCC(=O)N[C@@H](Cc1ccc(O)cc1)C(=O)N[C@@H](CCC(=O)O)C(=O)O)C(C)C` [NWRKILGQIASVGAGLLGSLLAGYE] the MIC [18] was 4.83 µM (≈ 12.5 µg/mL), the MIC [19] was 19.3 µM (≈ 50 µg/mL) and the MIC (Salmonella typhimurium) was 19.3 µM (≈ 50 µg/mL). For the same compound, the MIC [20] was 19.3 µM (≈ 50 µg/mL), the MIC [21] was 19.3 µM (≈ 50 µg/mL) and the MIC [22] was 9.66 µM (≈ 25 µg/mL). It also gave an MIC [23] of 19.3 µM (≈ 50 µg/mL), an MIC [24] of 19.3 µM (≈ 50 µg/mL) and an MIC [25] of 19.3 µM (≈ 50 µg/mL).

`CC(C)C[C@H](NC(=O)[C@H](Cc1cnc[nH]1)NC(=O)CNC(=O)[C@H](C)NC(=O)[C@H](C)NC(=O)[C@@H](NC(=O)[C@H](Cc1ccccc1)NC(=O)[C@H](C)NC(=O)[C@H](CC(C)C)NC(=O)[C@H](CCCCN)NC(=O)[C@H](CCCCN)NC(=O)[C@H](CC(C)C)NC(=O)[C@H](CC(C)C)NC(=O)[C@H](CCC(=O)O)NC(=O)[C@H](CCCN=C(N)N)NC(=O)[C@H](Cc1c[nH]c2ccccc12)NC(=O)[C@@H](N)Cc1c[nH]c2ccccc12)[C@@H](C)O)C(=O)NCC(=O)N[C@@H](CO)C(=O)N[C@H](C(=O)N[C@@H](CC(C)C)C(=O)N[C@@H](C)C(=O)N[C@@H](C)C(=O)N[C@@H](CCCCN)C(=O)N[C@@H](CCC(N)=O)C(=O)N[C@@H](CO)C(=O)NCC(=O)N[C@@H](Cc1c[nH]c2ccccc12)C(=O)O)C(C)C` [WWRELLKKLAFTAAGHLGSVLAAKQSGW] showed an MIC [18] of 2 µM (≈ 6.25 µg/mL), an MIC [19] of 16 µM (≈ 50 µg/mL) and an MIC (Salmonella typhimurium) of 16 µM (≈ 50 µg/mL). The MIC [20] was 16 µM (≈ 50 µg/mL), the MIC [21] was 16 µM (≈ 50 µg/mL) and the MIC [22] was 8 µM (≈ 25 µg/mL). It also gave an MIC [23] of 8 µM (≈ 25 µg/mL), an MIC [24] of 4 µM (≈ 12.5 µg/mL) and an MIC [25] of 8 µM (≈ 25 µg/mL).

For `CC(C)C[C@H](NC(=O)[C@H](C)N)C(=O)N[C@@H](Cc1c[nH]c2ccccc12)C(=O)N[C@@H](CCCCN)C(=O)N[C@H](C(=O)N[C@@H](CC(C)C)C(=O)N[C@@H](CC(C)C)C(=O)N[C@@H](CCCCN)C(=O)N[C@@H](CCCCN)C(=O)N[C@H](C(=O)N[C@@H](CC(C)C)C(=O)N[C@@H](CCCCN)C(=O)N[C@@H](C)C(=O)N[C@@H](C)C(=O)N[C@@H](C)C(=O)N[C@@H](CCCCN)C(=O)N[C@@H](C)C(=O)N[C@@H](C)C(=O)N[C@@H](CC(C)C)C(=O)N[C@@H](CCCCN)C(=O)N[C@@H](C)C(=O)N[C@H](C(=O)N[C@@H](CC(C)C)C(=O)N[C@H](C(=O)NCC(=O)N[C@@H](C)C(=O)N[C@@H](CC(N)=O)C(=O)N[C@@H](C)C(N)=O)C(C)C)C(C)C)C(C)C)[C@@H](C)O` [ALWKTLLKKVLKAAAKAALKAVLVGANA], the MIC [26] was 8 µM (≈ 22.9 µg/mL).
